This is an account of results in patent US7390834B2, “Cyanophenoxy carboxylic acid compounds and compositions for delivering active agents” (Emisphere Technologies, Inc., priority 2000, dated 2008).

The nature of series [1]: Oral and intracolonic delivery of heparin in rats (APTT). The following applies: Heparin Dose 1 mg/kg, maximum of group means, n=5. The format is in vivo, Sprague-Dawley rats. The procedure: Oral gavage (PO) and intracolonic (IC) dosing solutions containing a delivery agent compound and heparin sodium USP in 25% aqueous propylene glycol were prepared. Either the sodium salt of the delivery agent compound was used or the free acid was converted to the sodium salt with one equivalent of sodium hydroxide. Typically, the delivery agent compound and heparin (about 166-182 IU/mg) were mixed by vortex as dry powders. This dry mixture was dissolved in 25% v/v aqueous propylene glycol, vortexed and placed in a sonicator (about 37° C.). The pH was adjusted to about 7 (6.5 to 8.5) with aqueous NaOH (2N). The dosing solution was sonicated to produce a clear solution. The final volume was adjusted to 3.0 mL. The final delivery agent compound dose, heparin dose and volume dose amounts are listed below in Table 2.
The typical dosing and sampling protocols were as follows. Male Sprague-Dawley rats weighing between 275-350 g were fasted for 24 hours and were anesthetized with ketamine hydrochloride (88 mg/kg) intramuscularly immediately prior to dosing. A dosing group of five rats was administered one of the dosing solutions. For oral gavage (PO) dosing, an 11 cm Rusch 8 French catheter was adapted to a 1 mL syringe with a pipette tip. The syringe was filled with dosing solution by drawing the solution through the catheter, which was then wiped dry. The catheter was placed down the esophagus leaving 1 cm of tubing past the rat's incisors. Solution was administered by pressing the syringe plunger. For intracolonic (IC) dosing, a 7.5 cm 8 fr Rusch catheter was adapted to a 1 ml syringe with a pipette tip. The dosing catheter was inserted into the colon through the anus until the tube was no longer visible. The dosing solution was expressed slowly into the colon.
Citrated blood samples were collected by cardiac puncture following the administration of ketamine (88 mg/kg), typically at time—0.25, 0.5, 1.0 and 1.5 hours. Heparin activity was determined by utilizing the activated partial thromboplastin time (APTT) according to the method of Henry, J. B., Clinical Diagnosis and Management by Laboratory Methods, Philadelphia, Pa., W. B. Saunders (1979). Previous studied indicated baseline values of about 20 sec. Results from the five rats in each group were averaged for each time point. The maximum is reported below in Table 2.

Where [2] appears, read: Oral, as printed: Volume Dose 300 ml/kg, Compound Dose 100 mg/kg.

Take `N#Cc1ccccc1OCc1ccc(C(=O)O)cc1` [Compound 9, 4-(2-cyanophenoxymethyl)benzoic acid]: the melting point (usually the temperature of the solid-liquid transition) fell in the range of 199 to 203 °C.

The molecule `N#Cc1ccccc1OCCCCCCCCCC(=O)O` [Compound 6, 10-(2-cyanophenoxy)decanoic acid] had a melting point of 82 to 84 °C.

For the molecule `N#Cc1ccccc1OCCCC(=O)O` [Compound 2, 4-(2-cyanophenoxy)butanoic acid], the melting point lay within 127 to 128 °C.

`N#Cc1ccccc1OCCCCCC(=O)O` (hydrate or solvate) [Compound 4, 6-(2-cyanophenoxy)hexanoic acid]: the melting point fell in the range of 77 to 80 °C.

`N#Cc1ccc(OCCCCCCCC(=O)O)cc1` [Compound 8, 8-(4-cyanophenoxy)octanoic acid]: the melting point was in the range of 137 to 140 °C.

`N#Cc1ccccc1OCCCCCCCC(=O)O` [Compound 5, 8-(2-cyanophenoxy) octanoic acid] showed a melting point of 83 to 85 °C. In series [1] (IC, as printed: Volume Dose 50 ml/kg, Compound Dose 25 mg/kg), the “Mean Peak APTT (sec) ± SD” value was 80.22 ± 45.70 s. Besides, the “Mean Peak APTT (sec) ± SD” value in series [1] (setting [2]) turned out to be 176.25 ± 175.01 s.

Molecule `N#Cc1ccccc1OCCCCC(=O)O` [Compound 3, 5-(2-cyanophenoxy) pentanoic acid] gave a melting point of 87 to 89 °C. Further, the “Mean Peak APTT (sec) ± SD” value in series [1] (IC, as printed: Volume Dose 200 ml/kg, Compound Dose 25 mg/kg) amounted to 16.23 ± 1.23 s. In series [1] (setting [2]), the “Mean Peak APTT (sec) ± SD” value was 203.59 ± 72.97 s.

As for `N#Cc1cc(Cl)ccc1OCCCCC(=O)O` [Compound 7, 5-(4-chloro-2-cyanophenoxy)pentanoic acid], the melting point was 87 to 90 °C.
